Reference: paper PMC11133798, “Vosoritide treatment for children with hypochondroplasia: a phase 2 trial” (eClinicalMedicine, 2024)

What was measured:
[1] = test system: collagen X biomarker (CXM); assay: Serum collagen X biomarker (CXM) by ELISA; assay type: in vivo, human
Description: Secondary outcomes included the change in body proportions as measured by sitting height to standing height ratio and arm span minus standing height, as well as the change in bone age to chronological age ratio after 12 months of therapy. Sitting height was measured three times at each visit using a sitting height table. The average of the three values was used. Sitting height to standing height ratio and arm span minus standing height were standardized for age and sex using available reference data and SDS were calculated.[11]^,[12] Bone age X-rays were read by a single reviewer who was blinded to participant ID, age and time point. Exploratory endpoints included pharmacokinetic parameters, pharmacodynamic markers including collagen X biomarker (CXM) levels and urine cGMP production, and changes in quality of life as measured by the QoLISSY scale.[13] CXM levels in serum were measured in duplicate via an ELISA assay at the Shriners Hospitals for Children in Portland, Oregon as previously described.[14] The average of the two values was used for analysis. Urine samples were obtained for cGMP measurement at baseline and 60, 120, and 240 min after vosoritide injections at the Day 1, Month 6 and Month 12 visits. cGMP levels were assayed at ICON Laboratories (Farmingdale, NY) and were normalized to urine creatinine levels at each time point.

[2] = test system: rat chondrosarcoma cells transfected with FGFR3 containing the hypochondroplasia mutation; settings: addition of vosoritide; similar to achondroplasia mutation; n=3; ref unpublished BioMarin data; cited from earlier work
Description: The rationale for using vosoritide in hypochondroplasia is primarily an extension of the positive clinical trial results in patients with achondroplasia, a more severe perturbation of the same gen ...

[3] = test system: children with hypochondroplasia; design: species or system human; settings: in vivo
Description: The study has 3 prespecified co-primary outcomes: 1. To evaluate the safety and tolerability of daily subcutaneous injections of vosoritide administered for 12 months in patients with selected genetic causes of short stature, 2. To evaluate the change from baseline in age-sex standardized annualized growth velocity after 12 months of daily SC injections of vosoritide in patients with selected genetic causes of short stature, and 3. To evaluate the change from baseline in age-sex standardized height SDS after 12 months of daily SC injections of vosoritide in patients with selected genetic causes of short stature. Annualized growth velocity was standardized using data from the First Zurich Longitudinal Study of Growth and Development[9] as it includes growth velocity data starting at age 2.5 years. Height SDS was calculated using the United States CDC growth charts.[8] Hypochondroplasia specific height SDS was calculated using recently published hypochondroplasia growth curves.[10] To measure these outcomes, the following 3 co-primary endpoints were specified: 1. The incidence of adverse events per participant, 2. The change from baseline in age-sex standardized annualized growth velocity after 12 months of treatment, and 3. The change from baseline in age-sex standardized height SDS after 12 months of treatment. Height was measured five times at each study visit on a wall-mounted calibrated Harpenden stadiometer. The average of all five values was used. Safety assessments included routine laboratory evaluations at each visit, baseline and Month 12 echocardiograms, electrocardiograms at each visit, vital signs measurements, and spine X-rays at Day 1 and Month 12. No formal power calculations were done for this proof of principle study. Sample size was determined based on logistical feasibility. Medication adherence was calculated using the number of returned empty vials divided by the number of days of prescribed therapy. Demographics and clinical characteristics were summarized with mean and standard deviation (SD), median and interquartile (IQR) for numerical variables, frequency and proportion for categorical variables. Primary and secondary clinical outcomes were summarized with mean (SD) for the 6-month observation period and the 12-month treatment period. Paired t-tests were carried out to compare the difference between the treatment and observation periods. The corresponding p-value and 95% confidence interval (CI) were reported. Box and whisker plots were used for both primary endpoints (annualized growth velocity and height SDS) and exploratory endpoints (CXM and cGMP) to visualize the trends for the change from baseline to each of the follow-up visits. Safety data (AEs) were summarized as count and percentage of patients as well as the number of total occurrences per each listed AE for the observation period and the treatment period, respectively. As exploratory analyses, the primary endpoints were stratified based on age, baseline growth velocity and baseline height SDS. The summaries of mean (SD) for each visit, mean differences between treatment and observation periods, and the corresponding p-value and 95% CI were all reported. Parent reported quality of life using the […] scale was also reported with a similar tabular format. Data were analyzed using SAS for Windows version 9.4 (SAS Institute Inc., Cary, NC). A two-sided test with a significance level of 0.05 was used for all hypothesis tests.

PGQEHPNARKYKGANKKGLSKGCFGLKLDRIGSMSGLGC (disulfide) [vosoritide, recombinant 39-amino-acid C-type natriuretic peptide analog expressed in E. coli, cyclic by an intramolecular disulfide bond]
CXM levels, Month 6 versus Month 12 visit ([1]; n=24, on treatment): no significant differences | CXM, Month 12 ([1]; serum, ELISA in duplicate, 15 μg/kg/day SC, mean (SD), Day 1 22.48 (6.49), SD): 41.62 (15.86) ng/ml | ERK1/2 activation [2]: decrease ERK1/2 activation | Abdominal pain: # of patients [3]: 5 | Abdominal pain: # of total occurrences [3]: 15 | Abdominal pain: % of patients [3]: 20.8% | Any injection site reaction (overall): # of patients [3]: 20 | Any injection site reaction (overall): # of total occurrences [3]: 329 | Any injection site reaction (overall): % of patients [3]: 83.3% | Assay for drug induced anti-platelet antibodies [3]: negative | Cough: # of patients [3]: 12 | Cough: # of total occurrences [3]: 20 | Cough: % of patients [3]: 50.0% | Diarrhea: # of patients [3]: 2 | Diarrhea: # of total occurrences [3]: 3 | Diarrhea: % of patients [3]: 8.3% | Discontinuation due to a treatment related adverse event [3]: No participants discontinued treatment | Dizziness: # of patients [3]: 3 | Dizziness: # of total occurrences [3]: 4 | Dizziness: % of patients [3]: 12.5% | Ear infection: # of patients [3]: 2 | Ear infection: # of total occurrences [3]: 2 | Ear infection: % of patients [3]: 8.3% | Epistaxis: # of patients [3]: 3 | Epistaxis: # of total occurrences [3]: 3 | Epistaxis: % of patients [3]: 12.5% | Fever: # of patients [3]: 13 | Fever: # of total occurrences [3]: 29 | Fever: % of patients [3]: 54.2% | Headache: # of patients [3]: 6 | Headache: # of total occurrences [3]: 17 | Headache: % of patients [3]: 25.0% | Injection site bruising: # of patients [3]: 6 | Injection site bruising: # of total occurrences [3]: 20 | Injection site bruising: % of patients [3]: 25.0% | Injection site erythema: # of patients [3]: 13 | Injection site erythema: # of total occurrences [3]: 113 | Injection site erythema: % of patients [3]: 54.2% | Injection site pain: # of patients [3]: 7 | Injection site pain: # of total occurrences [3]: 61 | Injection site pain: % of patients [3]: 29.2% | Injection site swelling: # of patients [3]: 13 | Injection site swelling: # of total occurrences [3]: 116 | Injection site swelling: % of patients [3]: 54.2% | Injection site urticaria: # of patients [3]: 7 | Injection site urticaria: # of total occurrences [3]: 19 | Injection site urticaria: % of patients [3]: 29.2% | Laceration: # of patients [3]: 3 | Laceration: # of total occurrences [3]: 3 | Laceration: % of patients [3]: 12.5% | Nasopharyngitis: # of patients [3]: 2 | Nasopharyngitis: # of total occurrences [3]: 2 | Nasopharyngitis: % of patients [3]: 8.3% | Other Grade 3 or higher adverse events [3]: no other Grade 3 or higher adverse events | Rash maculo-papular: # of patients [3]: 2 | Rash maculo-papular: # of total occurrences [3]: 2 | Rash maculo-papular: % of patients [3]: 8.3% | Rhinorrhea: # of patients [3]: 6 | Rhinorrhea: # of total occurrences [3]: 6 | Rhinorrhea: % of patients [3]: 25.0% | Scoliosis: # of patients [3]: 3 | Scoliosis: # of total occurrences [3]: 3 | Scoliosis: % of patients [3]: 12.5% | Severity and outcome of injection site reactions [3]: grade 1 or 2 and self-resolved | Symptomatic hypotension [3]: no episodes of symptomatic hypotension | Syncope [3]: One participant | Upper respiratory tract infection: # of patients [3]: 2 | Upper respiratory tract infection: # of total occurrences [3]: 2 | Upper respiratory tract infection: % of patients [3]: 8.3% | Vomiting: # of patients [3]: 11 | Vomiting: # of total occurrences [3]: 18 | Vomiting: % of patients [3]: 45.8%
